4 molecules from patent US20150190470A1, “COMBINATION THERAPY” (TETRALOGIC PHARMACEUTICALS CORPORATION, priority 2012, published 2015) can be followed below.

Series [1] relates to Mouse renal carcinoma (RenCa) cells. In words: Viability of RenCa cells (MTT) with birinapant plus TNFα or mouse GM-CSF. It counts as cell-based. As to conditions: in combination with birinapant, TNFα 0.000001 to 100 ng/mL or mouse GM-CSF 0.001 to 10 ng/mL, 24 h. As for the experimental part:
Mouse renal carcinoma (RenCa) cells were seeded into 96-well plates at a density of 10,000 cells/well and allowed to adhere overnight. On the next day, birinapant alone or in combination with varying concentrations of TNFα (R&D systems) (0.000001 to 100 ng/mL) or mouse GM-CSF (R&D Systems) (0.001 to 10 ng/mL) were added. Following a 24 h incubation, viability was assessed by MTT assay.

The test system of series [2] is human peripheral blood mononuclear cells (PBMCs). The series can be described thus: Ex-vivo treatment of PBMCs with GM-CSF; cytokine concentration in culture supernatants by ELISA. It counts as cell-based. As for the experimental part: Peripheral blood mononuclear cells (PBMC) were isolated from two healthy male donors using BD Vacutainer® CPT cell preparation tubes (Becton, Dickinson and Company, Franklin Lakes N.J. 07417, REF 362753) according to manufacturer's protocol. After isolation, mononuclear cell layer was removed from CPT tube and transferred to a sterile 15 mL centrifuge tube. Cells were washed by adding 10 mL of Dulbecco's Modified Eagle Medium (DMEM) containing 10% fetal bovine serum (FBS) to cells, tube was inverted several times to mix and cells were pelleted by centrifugation at 1500 RPM for 10 minutes. Following centrifugation, media was removed and cells were resuspended in DMEM containing 10% FBS to a concentration of 1×10^6 cells/mL. Cells were next seeded into 6-well dishes at 1×10^6 cells/mL in 2 mL/well. Following 2 hr incubation at 37° C./5% CO2, human recombinant GM-CSF (R&D Systems, Minneapolis Minn. 55413, Catalog # #215-GM) was added to cells at indicated concentrations. Following overnight incubation at 37° C./5% CO2, media was collected into sterile 15 mL centrifuge tubes and cells were removed by centrifugation at 1500 RPM for 10 minutes. Media was transferred to new, sterile tubes and frozen at −80° C. until use.
TNFα concentration in culture supernatants was determined by ELISA (BD OptEIA TNF kit II) according to manufacturer's recommendations. Absorbance values were analyzed using GraphPad Prism linear regression analysis and reported as pg/mL TNFα.
In a first extension of the preceding study, substantially the same experiment was carried out with PBMCs from two additional donors, Donors 3 and 4. In this first extension study, cells were treated with GM-CSF, GM-CSF+1.0 uM birinapant.
In a second extension study, substantially the same experiment was subsequently carried out with new PBMC culture supernatants from Donors 1, 3, and 4.
Background: In an ELISA, binding on a coated surface is turned into a signal by an enzyme label.

Series [3] relates to RenCa cells. The series can be described thus: Survival of BALB/c mice inoculated with RenCa cells. It counts as in vivo. Particulars: female BALB/c mice, RenCa cells on each flank; qdX5 each week for 4 weeks; birinapant 15 mg/Kg IP, mGM-CSF 10 mg IP. The method, then: 40 female BALB/c mice (10 per treatment group) were inoculated with 1×10^5 RenCa cells on each flank. The mice were subsequently treated qdX5 each week for 4 consecutive weeks with birinapant, mGM-CSF, birinapant and mGM-CSF, or a vehicle control. Each dose of birinapant was 15 mg/Kg IP and each dose of mGM-CSF was 10 mg IP.

Series [4] concerns MDA-MB-231 cells (human breast cancer), Smac mimetic resistant variant. The series can be described thus: Viability of MDA-MB-231 cells (MTT) with PBMC culture supernatants and Compound 15. It counts as cell-based. Particulars: 1 μM Compound 15 with supernatant of 1 ng/mL GM-CSF-treated Donor 1 PBMC culture, 24 hr, FIG. 3(a). As for the experimental part:
MDA-MB-231 cells (human breast cancer) were seeded into 96-well plates at a density of 10,000 cells/well and allowed to adhere overnight. Next day, culture supernatants from untreated Donor 1 PBMC culture or 1 ng/mL GM-CSF-treated Donor 1 PBMC culture was added to MDA-MB-231 cells in the presence or absence of 1 μM Compound 15, 1 μM Compound 15 plus TNFα neutralizing antibody (R&D Systems #MAB610, 10 μg/mL), 1 μM Compound 15 plus TRAIL neutralizing antibodies (R&D Systems #374-DR and 631-T2, 100 ng/ml each) or 1 μM Compound 15 plus both TNFα and TRAIL neutralizing antibodies. All antibodies were tested in the absence of Compound 15 as control. Viability of MDA-MB-231 cells was measured following 24 hr incubation at 37° C./5% CO2 by MTT (3-(4,5-dimethylthiazol-2-yl)-2,5-diphenyltetrazolium bromide) assay substantially as described in Hansen, M. B., Nielsen, S. E., and Berg, K. (1989) J. Immunol. Methods 119, 203-210.
In an extension study, substantially the same experiment was carried out with culture supernatants from two additional donors, Donors 3 and 4, excluding treatment with the combination of anti-TNFα and anti-TRAIL antibodies.

For series [5] the following is noted: human, in vivo. An excerpt:
In general, Compound 15 can be administered once, twice or three times per week for one to four weeks (or longer). In some situations a treatment interval may be followed by a rest interval. A suitable rest interval includes but is not limited to one week. […] It should be understood that the “on” weeks are consecutive weeks, i.e., two consecutive weeks on drug, three consecutive weeks on drug, and four consecutive weeks (or more) on drug.

For the molecule TNFα [reference compound], the RenCa cell viability result in series [1] is recorded as “decreased in direct relation to the concentration of TNFα”.
As to “GM-CSF: Granulocyte macrophage colony-stimulating factor; human recombinant GM-CSF (R&D Systems) in Example 1”, the “expression and secretion of TNFα by PBMCs” value in series [2] (Donors 1 and 2, overnight incubation with GM-CSF, ELISA, FIGS. 1(a),(b)) was “increased expression and secretion of TNFα”; in series [2] (first extension study, Donors 3 and 4, FIGS. 1(c),(d)) it was “increased expression and secretion of TNFα”; in series [2] (second extension study, new PBMC culture supernatants from Donors 1, 3 and 4, FIGS. 2(a)-(c)), “increased expression and secretion of TNFα”. Further, the RenCa cell viability entry in series [1] is “unaffected”.
On to `CC[C@H](NC(=O)[C@H](C)NC)C(=O)N1C[C@@H](O)C[C@H]1Cc1c(-c2[nH]c3cc(F)ccc3c2C[C@@H]2C[C@H](O)CN2C(=O)[C@H](CC)NC(=O)[C@H](C)NC)[nH]c2cc(F)ccc12` [Compound 15, N-{1S-[2R-(6,6′-Difluoro-3′-{4S-hydroxy-1-[2S-(2S-methylamino-propionylamino)-butyryl]-pyrrolidin-2R-ylmethyl}-1H,1′H-[2,2′]biindolyl-3-ylmethyl)-4S-hydroxy-pyrrolidine-1-carbonyl]-propyl}-2S-methylamino-propionamide], for which the “time to which 50% of mice survived” value in series [3] was “approximately 40 days”. In series [4], the “viability of MDA-MB-231 cells / induction of apoptosis” value is listed as “sensitization of MDA-MB-231 Smac mimetic resistant variant to Compound 15”. The “half-life in the patient” value in series [5] is listed as “long half-life”.

B1: mGM-CSF: mouse GM-CSF (R&D Systems) (protein, UniProt P01587 18-141, looked up)
Granulocyte-macrophage …: APTRSPITVTRPWKHVEAIKEALNLLDDMPVTLNEEVEVVSNEFSFKKLTCVQTRLKIFEQGLRGNFTKLKGALNMTASYYQTYCPPTPETDCETQVTTYADFIDSLKTFLTDIPFECKKPGQK
As for B1, the “time to which 50% of mice survived” value in series [3] is “approximately 30 days”.
